Target: T1, Pin1 (Homo sapiens, UniProt Q13526)
T1 construct: PTPI-PIN1 directs the synthesis of the native full length Pin1 protein; (His)6 (N); made in house; host or cells: E. coli BL21
Assay: PPIase assay: inhibition of Pin1 PPIase activity
Type: biochemical
Conditions: even at 25 μM
Method: PPIase activity of the purified recombinant proteins was assayed using the procedure of Heitman et al. (Methods, 5:176, 1993) with the following exceptions. The reaction was carried out 5° C. and chymotrypsin was added just before the peptide substrate (N-Succ-Ala-Pro-Phe-p-nitroanilide, Sigma). The cis to trans isomerization was monitored every 6 seconds by a change in the absorbance at 395 nm using DMS 2000 UV and Visible Spectrophotometer (Varian). FKBP, cyclosporin A and FK520, a FK506 derivative, were gifts of D. Schultz and C. Zuker; University of California, San Diego.
Because of the strong sequence in similarity between Pin1 and the third PPIase family, Pin was tested to determine if Pin could catalyze the cis/trans isomerization of peptidyl-prolyl peptide bonds in vitro, a characteristic of PPIase. Pin1 was expressed in bacteria with an N-terminal (His)6 tag and was purified from bacteria using a […] agarose column. […] The isomerase activity was measured as described in Example 1. The cis to trans isomerization was monitored every 6 seconds by a change in the absorbance at 395 nm, with the finally stable absorbance of each sample being set at 1.0. Different concentrations of Pin1 were used as indicated, with the recombinant FK506-binding protein (FKBP) PPIase being used as a positive control. The control sample contained all the ingredients except the PPIase. […]

T1 sequence (Q13526 whole entry): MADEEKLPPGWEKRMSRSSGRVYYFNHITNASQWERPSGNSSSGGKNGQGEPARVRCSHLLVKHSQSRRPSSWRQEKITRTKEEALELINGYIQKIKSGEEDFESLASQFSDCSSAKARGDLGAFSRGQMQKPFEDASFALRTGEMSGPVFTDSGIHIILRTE

With `CC[C@@H]1/C=C(\C)C[C@H](C)C[C@H](OC)[C@H]2O[C@@](O)(C(=O)C(=O)N3CCCC[C@H]3C(=O)O[C@H](/C(C)=C/[C@@H]3CC[C@@H](O)[C@H](OC)C3)[C@H](C)[C@@H](O)CC1=O)[C@H](C)C[C@@H]2OC` [FK520] the “inhibition of the PPIase activity of Pin1” value was “not inhibited”.

Reference: patent US7125955B2, “NIMA interacting proteins” (The Salk Institute for Biological Studies, priority 1995, dated 2006)
